Assay results taken from ChEMBL document CHEMBL4689842, “EUbOPEN Chemogenomics Library wave 1” (2021).

Columns and labels:
Type in all cases: toxicity, cell-based
Fibroblast = assay: Incucyte cell viability with human fibroblast; details: 10 µM, compound concentration 10 uM
U2OS = assay: Incucyte cell viability with U2OS; details: human, 10 µM, compound concentration 10 uM
HEK-293T = assay: Incucyte cell viability with HEK293T; details: human, 10 µM, compound concentration 10 uM
[1] = 0 h, replicate number 1, timepoint 0 hours
[2] = 6 h, replicate number 1, timepoint 6 hours
[3] = 6 h, replicate number 2, timepoint 6 hours
[4] = 12 h, replicate number 1, timepoint 12 hours
[5] = 12 h, replicate number 2, timepoint 12 hours
[6] = 18 h, replicate number 1, timepoint 18 hours
[7] = 18 h, replicate number 2, timepoint 18 hours
[8] = 24 h, replicate number 1, timepoint 24 hours
[9] = 24 h, replicate number 2, timepoint 24 hours
[10] = 0 h, replicate number 2, timepoint 0 hours
Note: filed as whole numbers so only -1 and 0 and 1 occur.

Row | SMILES | Growth Rate (Fibroblast; [1]) | Growth Rate (Fibroblast; [2]) | Growth Rate (Fibroblast; [3]) | Growth Rate (Fibroblast; [4]) | Growth Rate (Fibroblast; [6]) | Growth Rate (Fibroblast; [7]) | Growth Rate (Fibroblast; [8]) | Growth Rate (U2OS; [2]) | Growth Rate (U2OS; [4]) | Growth Rate (U2OS; [6]) | Growth Rate (U2OS; [7]) | Growth Rate (U2OS; [8]) | Growth Rate (HEK-293T; [1]) | Growth Rate (HEK-293T; [10]) | Growth Rate (HEK-293T; [2]) | Growth Rate (HEK-293T; [4]) | Growth Rate (HEK-293T; [6]) | Growth Rate (HEK-293T; [8]) | Growth Rate (U2OS; [1]) | Growth Rate (U2OS; [3]) | other results
1 | CCc1cc(Nc2nccc(-c3c(-c4ccc(OC)c(C(=O)Nc5c(F)cccc5F)c4)nc4ccccn34)n2)c(OC)cc1N1CCC(N2CCN(S(C)(=O)=O)CC2)CC1 | 1 | 1 | 0 | 1 | 1 | 0 | 1 | 1 | 1 | 1 | 0 | 1 | 1 | 0 | 0 | 0 | 0 | 0 |  |  | Growth Rate (Fibroblast; [5]): 0; Growth Rate (Fibroblast; [9]): 0; Growth Rate (HEK-293T; [5]): 1; Growth Rate (HEK-293T; [9]): 1
2 | CC(C)(O)c1cncc(-c2nc3ccc(F)cc3n2C2CC2)c1 [MSD-CYP11B2] |  | 1 | 0 | 1 | 1 | 0 |  | 0 | 0 | 0 | 1 | 1 | 0 | 1 |  | 0 | 0 | 0 | 0 | 1 | Growth Rate (Fibroblast; [9]): 1; Growth Rate (U2OS; [5]): 1; Growth Rate (HEK-293T; [7]): 1
3 | CN1CCN(c2ccc(-c3cccc(CN4CCOCC4)c3)cc2NC(=O)c2c[nH]c(=O)cc2C(F)(F)F)CC1 |  |  | 0 | 1 | 1 |  | 1 | 1 | 0 | 0 | 1 | 1 |  | 1 | 0 | 0 | 1 | 1 | 0 | 0 | Growth Rate (Fibroblast; [10]): 1; Growth Rate (Fibroblast; [5]): 0; Growth Rate (U2OS; [9]): 0
4 | COc1ccc2c(c1)O[C@@H](c1ccc(OC)c(OC)c1)C[C@H]2NC(=O)C1(c2ccc3c(c2)OC(F)(F)O3)CC1 [A-1596586] | 0 |  |  |  | 1 |  | 1 |  | 1 | 1 |  | 1 | 1 | 0 | 0 | 0 | 0 | 0 | 0 |  | 
5 | NC(=O)[C@@H]1CCCN1C(=O)[C@H](Cc1cnc[nH]1)NC(=O)[C@@H]1CCC(=O)N1 [PROTIRELIN] | 0 |  | 0 |  | 1 | 0 | 1 | 1 | 0 | 0 | 1 | 0 | 0 |  | 1 | 1 | 1 | 1 | 0 | 0 | Growth Rate (Fibroblast; [10]): 1; Growth Rate (Fibroblast; [5]): 1; Growth Rate (Fibroblast; [9]): 0; Growth Rate (HEK-293T; [9]): 0
6 | Cc1cn2cc(CC(=O)N3CCC4(CC3)CN(Cc3ccc(-n5nccn5)cc3Cl)C4)nc2s1 | 1 | 0 |  | 0 | 0 |  | 1 |  | 1 | 1 |  | 1 | 1 | 0 | 0 | 0 | 0 | 0 | 0 | 0 | Growth Rate (Fibroblast; [9]): 0
7 | CCOC(=O)c1ccc(C#Cc2ccc3c(c2)C(C)(C)CCS3)nc1 [TAZAROTENE] | 0 |  |  | 1 | 1 |  | 0 |  | 0 | 0 | 1 | 0 |  | 0 | 0 | 0 | 0 | 0 |  | 1 | Growth Rate (U2OS; [10]): 0; Growth Rate (U2OS; [5]): 1; Growth Rate (U2OS; [9]): 1; Growth Rate (HEK-293T; [3]): 1
8 | CN(C)CCCN1c2ccccc2CCc2ccccc21.Cl [IMIPRAMINE HYDROCHLORIDE] | 0 | 0 |  | 0 | 1 | 0 | 0 |  | 1 | 1 |  | 1 |  | 1 | 0 | 0 | 0 | 0 |  |  | Growth Rate (U2OS; [10]): 0
9 | CN(CCOc1ccc(CC2SC(=O)NC2=O)cc1)c1ccccn1 (centres undefined) [ROSIGLITAZONE] | 0 |  | 0 | 1 | 1 | 0 | 1 | 0 | 1 | 1 |  | 1 | 1 | 0 | 1 | 1 | 1 | 1 | 0 | 1 | Growth Rate (Fibroblast; [5]): 0; Growth Rate (HEK-293T; [3]): 0; Growth Rate (HEK-293T; [5]): 0; Growth Rate (HEK-293T; [7]): 0; Growth Rate (HEK-293T; [9]): 0
10 | C[C@H](NC(=O)Nc1cc2[nH]ncc2c(CO)n1)c1ccccn1 [ERKi-NC] |  | 0 |  | 0 | 1 | 0 | 1 | 0 | 0 | 0 | 1 | 0 | 0 | 1 |  |  | 1 | 1 | 0 | 1 | Growth Rate (Fibroblast; [10]): 1; Growth Rate (U2OS; [5]): 1; Growth Rate (U2OS; [9]): 1
11 | COc1ncc(F)cc1CNc1ccc(Cc2c[nH]c3ncc(C)cc23)c(F)n1 [PLX-5622] |  | 1 | 0 | 1 | 0 | 1 | 0 | 0 | 0 | 0 |  | 0 | 0 | 1 | 1 | 1 | 1 | 1 |  |  | Growth Rate (Fibroblast; [10]): 1; Growth Rate (Fibroblast; [5]): 0; Growth Rate (U2OS; [10]): 0; Growth Rate (HEK-293T; [9]): 0
12 | Cl.O=C(Cc1ccc(Cl)c(Cl)c1)N1CCCC[C@H]1CN1CCCC1 | 0 |  |  |  |  |  |  |  | 1 | 1 |  | 1 |  | 0 | 0 | 0 | 0 | 0 | 0 | 1 | Growth Rate (Fibroblast; [10]): 1; Growth Rate (HEK-293T; [7]): 1
13 | Cc1ccc2[nH]c(CNCCCc3ccncc3)cc(=O)c2c1 [UCSF924NC] | 1 | 0 |  | 0 | 0 |  | 0 | 0 | 0 | 0 | 1 | 0 | 1 | 0 | 0 | 0 | 0 | 0 |  |  | Growth Rate (U2OS; [5]): 1; Growth Rate (HEK-293T; [3]): 1; Growth Rate (HEK-293T; [5]): 1; Growth Rate (HEK-293T; [7]): 1; Growth Rate (HEK-293T; [9]): 1
14 | C/C(=N\NC(=O)[C@@H]1C(=O)NC[C@H]1c1ccccc1)c1cccc(Br)c1 | 1 | 0 |  | 0 | 0 |  | 1 | 0 | 1 | 0 |  | 0 | 1 | 0 | 0 | 0 | 0 | 0 | 0 |  | Growth Rate (Fibroblast; [9]): 0; Growth Rate (U2OS; [5]): 0
